Read-outs that look alike come from different tables or passages of the source.
Columns and labels:
[1] = Solid-state stability and thermal decomposition (TG-DTA); format: physicochemical
Experimental: (3) Its solid state is stable at room temperature. In the simulated air atmosphere and nitrogen, a thermal decomposition reaction can occur at a lower temperature (<190° C.) to generate palladium metal (see FIG. 2 and FIG. 3), which can reduce energy consumption in the thermal reduction or calcination process of catalyst preparation. Moreover, the decomposition products are Pd, CO2, N2 and H2O, facilitating clean production and environmental protection.
FIG. 2: a thermogravimetric curve (TG-DTA) of (NH4)2[Pd(NO2)2(C2O4)]·2H2O of the present disclosure in simulated air.
FIG. 3: a thermogravimetric curve (TG-DTA) of (NH4)2[Pd(NO2)2(C2O4)]·2H2O of the present disclosure in nitrogen.

[2] = background statement; cited from earlier work
[3] = Stability of aqueous solution (colour change, precipitation); format: physicochemical
Excerpt: (§1) The pH of the solution at a concentration of 100 g/L is about 4-5.

pH of aqueous solution = format: physicochemical; conditions: concentration of 100 g/L
Excerpt: as §1

[4] = Solubility in pure water at room temperature; format: physicochemical
Excerpt: as §1

Which stability ([1]; room temperature, self-redox reaction producing palladium metal) does the source give for `O.O.O=C([O-])C(=O)[O-].O=C([O-])C(=O)[O-].[NH4+].[NH4+].[Pd+2]` [(NH4)2[Pd(C2O4)2]·2H2O, ammonium bis(oxalato)palladium(II) dihydrate, reference compound] here?
The stability was “unstable”.

Which stability in water [2] does the source give for `O=[N+]([O-])[O-].O=[N+]([O-])[O-].[Pd+2]` [Palladium nitrate solution, palladium nitrate] here?
The stability in water was “unstable in water”.

Which stability in water ([3]; 60° C. for 5 hours) does the source give for `O=C1[O][Pd]([N+](=O)[O-])([N+](=O)[O-])[O]C1=O` [Pd-X6, ammonium dinitrooxalato palladium(II)] here?
Its stability in water is “color of the solution does not change and no precipitation is observed”.

What about the stability in water ([3]; room temperature for 2 days) of the same compound?
Its stability in water is “color of the solution does not change and no precipitation is observed”.

And the “pH of the solution” value (pH of aqueous solution)?
Its value is 4-5.

What about the solid state stability ([1]; room temperature) of the same compound?
The solid state stability was “stable”.

What about the “thermal decomposition temperature to palladium metal” value ([1]; simulated air atmosphere and nitrogen) of the same compound?
Its value is less than 190 °C.

And the solubility [4]?
Its solubility is greater than 400 mg/mL.

What about the “solubility in pure water, equivalent Pd” value [4] of the same compound?
The value was greater than 120 g Pd/L.

Source: patent US20240092814A1, “WATER-SOLUBLE Pd(II) COMPLEX, METHOD FOR SYNTHESIZING SAME, AND USE THEREOF AS [sequence] PRECURSOR” (priority 2022, published 2024)
